# Data: patent US12048705B2, “Immunoablative therapies” (AVM Biotechnology, LLC, priority 2018, dated 2024)
# Several values for one entry are separate records, joined by “and”; a condition that tells them apart may be missing. Identical values can stand only once. Like-named read-outs stand apart in the source and are kept apart here. Marks after values point to notes of the source that are not given here.
# Key:
# [1] = human, in vivo; cited from earlier work
# [2] = in vivo; cited from earlier work
# B lymphocytes = test: Treatment of patients with autoimmune diseases (paper examples 5 and 9); type: in vivo, human; details: acute high dose, patient with an autoimmune disease
# Description: Acute high dose prednisone doses range from about 19 mg/kg to about 150 mg/kg, with doses between about 56 mg/kg and about 112 mg/kg being preferred, with a repeat (second) administration of this dose 24 hours later and an optional repeat (third) administration of this dose 48-72 hours after the initial dose.
# [3] = test system: spleen weights, germinal centers; details: mice, po daily for 13 weeks; cited from earlier work
# [4] = mouse, in vivo, 15 mg/kg
# [5] = mouse, in vivo
# Description: To another group of mice Cy was administered IP at 166 mg/kg (HED 500 mg/m2) on day −5 and day −4 and Fludarabine 10 mg/kg (HED 30 mg/m2) on days −5, −4, −3, −2.
# IL-2, IL-15, IL-6 = details: oral 3 mg/kg, 48 hours
# Description: Blood was drawn before drug treatment and 48 hours post-treatment for CBC analysis and flow cytometry to determine lymphocyte and other blood cell populations. Serum was analyzed for cytokine levels.
# A20 B cell lymphoma = A20 B cell lymphoma mouse model, tumor volume; type: in vivo; details: 15 mg/kg HED on days 7, 10, 18, 23, 24, 28, 35, 42
# Description: (§1) In the present study, mice were housed, inoculated and treated in the same way as reported in the Bascus et al. (2016) study. […] Tumor volume (mm^3) was measured every 2-3 days.
# [6] = Clinical chemistries in mice after acute oral doses; type: in vivo, mouse
# [7] = Double-blind controlled horse trial, adverse effects; type: in vivo; details: acute high dose; out to 70 days
# [8] = test system: multiple myeloma and other cancer cell lines; test: Direct tumor killing of cancer cell lines; type: cell-based; details: about 1.6 mg/kg HED in a 48 hour period; maintained but not increased up to about 12 mg/kg HED
# [9] = HED, cited from earlier work
# germinal centers = test: Germinal centers in mouse spleen, FITC-PNA immunofluorescence; type: in vivo; details: HED
# Description: FIG. 2. […] A graph of column plots of average Germinal Center staining intensity measured using immunofluorescent staining of fresh thick spleen sections stained with FITC-PNA is shown. Immunofluorescent intensity was calculated using thresholding and MetaMorph Image Analysis. Columns are average plus SEM.
# The spleens were removed, weighed wet, and then fixed in 10% formalin. Subsequently the spleens were sectioned via proprietary methods and then incubated with FITC-PNA at 4 degC for 24 hours, washed, placed on slides and immunofluorescent images were captured. Metamorph software was used to quantify the immunofluorescent signal.
# [10] = A20 B cell lymphoma mouse model, toxicity (body weight, deaths); details: 15 mg/kg dexamethasone base HED
# Description: as §1
# [11] = A20 tumor bearing mice, cell counts by CBC analyzer and chemistry (Table 2); details: A20 tumor bearing male mice, 15 mg/kg HED on day 28, animals 12 and 7
# [12] = test system: marginal zone and germinal centers of the spleen; test: Rat spleen marginal zone width (H&E) and germinal center area (BCL-6 staining); type: in vivo; details: IV or PO, 48 hours
# Description: Column plots of the area per spleen of BCL-6 staining of 5 micron fixed spleen sections as a measure of germinal center numbers given as average per section are shown.
# Formalin-fixed spleens were cross-sectioned in 5 pieces, trimmed and embedded in paraffin, sectioned and stained with hematoxylin and eosin (H&E). Measurements of the periarteriolar lymphoid sheath (PAL) diameter and the width of the marginal zone (MZ) in areas of white pulp that had PAL with the greatest diameter were measured using an ocular micrometer. BCL-6 immunohistochemical staining in rat spleens was evaluated to determine GC area using automated image analysis methods.
# [13] = test system: peripheral blood lymphocytes
# Description: Each patient's pre-treatment values are connected to post-treatment values by a connecting line.
# Each patient's pre-treatment values are connected to post-treatment values by a connecting line. […] HSCs are identified by being CD34+CD38−.
# Blood was drawn before drug treatment and 48 hours post-treatment for CBC analysis and flow cytometry to determine lymphocyte and other blood cell populations. […] For one patient, pre-treatment CBCs were not drawn and thus normalized flow cytometry data is shown for only 3 patients.
# [14] = test system: peripheral blood lymphocytes; test: Repeat of Hinrichs dexamethasone dosing, peripheral blood lymphocytes by flow cytometry; type: in vivo; design: reduction of Tregs / reduction of NK cells / reduction of CD3+ T lymphocytes / reduction of CD3+CD4+ T lymphocytes / reduction of CD3+CD8 T lymphocytes: concentration or dose not given beside the values
# lymphocytes, neutrophils = test: Rat complete blood count 48 hours after IV or PO dexamethasone; type: in vivo; details: male Lewis rats
# Description: FIG. 7. […] Data in FIGS. 3, 4, and 6 are from the same rats. […] Oral (left) and IV (right) doses were administered 1×48 hours before blood withdrawal.
# [15] = test system: peripheral blood lymphocytes; test: Mouse complete blood count and flow cytometry 24-48 hours after oral dexamethasone
# Description: CD3 and CD4 positive lymphocytes. […] Relative counts/ul=flow cytometry and complete blood count combined. […] Doses are shown as HED (human equivalent dose). A one-way ANOVA followed by Tukey's test was incorporated to determine statistical significance between the treatment groups; * p<0.05, ** p<0.01, *** p<0.001.
# Treg lymphocytes were identified by being CD3+CD4+CD25+FoxP3+. Relative counts/ul=flow cytometry and complete blood counts combined. […] Doses are shown as HED (human equivalent dose). A one-way ANOVA followed by post-hoc Tukey's test was incorporated to determine statistical significance between the treatment groups; * p<0.05, ** p<0.01.
# NK cells were identified by being CD3−CD49b+. B lymphocytes were identified by being CD3−B220+. Relative counts/ul=flow cytometry and complete blood counts combined. […] Doses are shown as HED (human equivalent dose). A one-way ANOVA followed by post-hoc Tukey's test was incorporated to determine statistical significance between the treatment groups; * p<0.05, ** p<0.01; *** p<0.001.
# Cells/ul=absolute numbers obtained from complete blood counts (CBC). […] Doses are shown as HED (human equivalent dose).
# Cells/ul=absolute numbers obtained from CBC. […] Doses are shown as HED (human equivalent dose).
# hematopoietic stem cells = test: Live hematopoietic stem cells in naive mice 48 hours after treatment; details: high doses
# [16] = oral, 12 mg/kg HED group vs placebo, 24-48 hours
compound,measurement,setting,value
alemtuzumab: anti-CD52 lymphocyte depletional agent,patients who developed (primarily thyroid) autoimmunity,[1],two thirds
C[C@]12C=CC(=O)C=C1CC[C@@H]1[C@@H]2C(=O)C[C@@]2(C)[C@H]1CC[C@]2(O)C(=O)CO [prednisone],biologic half-life,[2],about 20 hours
same,reduction of B lymphocyte numbers,B lymphocytes,greater than 90%
same,reduction of memory B cell populations,B lymphocytes,greater than 90%
same,dose above which spleen weights or germinal centers are significantly impacted,[3],over 2.5 mg/kg
C[C@@H]1C[C@H]2[C@@H]3CCC4=CC(=O)C=C[C@]4(C)[C@@]3(F)[C@@H](O)C[C@]2(C)[C@@]1(O)C(=O)CO [dexamethasone],CRE,[4],0.5
same,GGT,[4],0
same,NRBC,[4],0*
same,body weight as a general measure of toxicity,[5],did not impact body weight
same,IL-6 level,"IL-2, IL-15, IL-6",not elevated in any patient
same,patients with increased serum IL-2 and/or IL-15 levels,"IL-2, IL-15, IL-6",100%
same,efficacy in terms of tumor volume control compared with CHOP,A20 B cell lymphoma,"greater than 1 cycle of CHOP, but not quite as effective as 2 cycles of CHOP"
same,clinical chemistry levels including cholesterol and total protein,"[6]; acute oral doses, HED 6-12 mg/kg",do not elevate clinical chemistry levels out of normal range
same,glucose level,[6]; after acute high dose,not elevated over the normal range
same,adverse side effects,[7],no adverse side effects were observed
same,direct tumor killing,[8],about 50%
same,lowest lethal dose,[9]; healthy mice,114 mg/kg
same,lowest lethal dose,[9]; tumor bearing mice,43 mg/kg
same,acute dose from which germinal centers are reduced,germinal centers,≥ 6 mg/kg
same,acute dose from which germinal centers are reduced,germinal centers; listed as Dexamethasone,≥ 3 mg/kg
same,mice that died from the treatment,[10],no mice died
same,BAS %,[11],0%
same,EOS %,[11],0%
same,Meta %,[11],0%
same,BASCT,[11]; 15 mg/kg,38 and 57
same,CA,[11]; 15 mg/kg,9.9 and 10.0
same,EOSCT,[11]; 15 mg/kg,158 and 92
same,LYM %,[11]; 15 mg/kg,30% and 53%
same,MON %,[11]; 15 mg/kg,0% and 3%
same,NEU %,[11]; 15 mg/kg,70% and 44%
same,NEUCT,[11]; 15 mg/kg,550 and 280
same,TP,[11]; 15 mg/kg,5.5 and 5.4
same,WBC,[11]; 15 mg/kg,860 and 1150
same,dose of maximal inhibition of germinal center area,[12],12.9 mg/kg HED
same,dose of maximal inhibition of marginal zone,[12],12.9 mg/kg HED
same,patients showing lymphocytosis,[13]; 3 mg/kg HED,50%
same,hematopoietic stem cells (CD34+CD38−),"[13]; human, in vivo, po, 3 mg/kg",spared
same,"CD3+ T lymphocytes, live events","[14]; intraperitoneal 10 mg/kg (HED 0.81 mg/kg) on day −6, −4, −2, vehicle 3370",2441 live events
same,"CD3-CD19+ B lymphocytes in the peripheral blood, live events by flow cytometry","[14]; intraperitoneal 10 mg/kg (HED 0.81 mg/kg) on day −6, −4, −2, vehicle control 10680",3733 live events
same,reduction of B lymphocytes,"[14]; intraperitoneal 10 mg/kg (HED 0.81 mg/kg) on day −6, −4, −2, vs vehicle, significant",65%
same,reduction of CD3+ T lymphocytes,"[14]; same dosing, non-significant",33%
same,reduction of CD3+CD4+ T lymphocytes,"[14]; same dosing, non-significant",50%
same,reduction of CD3+CD8 T lymphocytes,"[14]; same dosing, non-significant",3%
same,reduction of NK cells,"[14]; same dosing, non-significant",17%
same,reduction of Tregs,"[14]; same dosing, non-significant",65%
same,"CD3+CD4+CD25+FoxP3+ Tregs, live events","[14]; same dosing, vehicle 198",70 live events
same,"CD3+CD8 T lymphocytes, live events","[14]; same dosing, vehicle 1318",1277 live events
same,"CD3+CD4+ T lymphocytes, live events","[14]; same dosing, vehicle 1779",902 live events
same,"RBCs, platelets, Hct, HgB","lymphocytes, neutrophils",not affected
same,neutrophil number,"lymphocytes, neutrophils; all doses",increased by all doses
same,"reduction in CD4+, CD8+, Tregs and B cells population","[15]; naive mouse and rat models, high doses, 48 hours after administration, preliminary",~98%
same,HED dose giving almost complete lymphoablation,"[15]; normal mice, oral",greater than 12 mg/kg
same,absolute neutrophils,"[15]; oral HED 3-17.5 mg/kg, 24-48 hours",does not affect
same,absolute RBCs and platelets,"[15]; oral HED 3-17.5 mg/kg, 48 hours",does not affect
same,reduction in B lymphocytes (CD3−B220+),[15]; [16],83%
same,reduction in CD3+ T lymphocytes,[15]; [16],65%
same,reduction in CD4+ T lymphocytes,[15]; [16],75%
same,reduction in CD8+ T lymphocytes,[15]; [16],56%
same,reduction in NK cells (CD3−CD49b+),[15]; [16],87%
same,reduction in Tregs (CD3+CD4+CD25+FoxP3+),[15]; [16],78%
same,reduction in absolute lymphocyte count,"[15]; oral, C57B1 male mice vs placebo, 24 to 48 hours, dose group not stated",84%
same,number of live hematopoietic stem cells,hematopoietic stem cells,did not significantly alter
